Experimental data from patent publication US20250179059A1 (The Regents of the University of California, priority 2021, published 2025).

Legend:
[1] = test system: human SKM-1 acute myeloid leukemia cells; assay: SKM-1 antiproliferation cell-based assay (ATPlite); settings: Homo sapiens, SKM-1, 96 h, SKM-1 antiproliferation assay, 4 days, Table C2
In short: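 Log-phase cells in RPMI 1640/15% FBS were seeded at 34722 cells/mL and exposed for 4 days to nine-concentration DMSO serial dilutions in triplicate. Viability was read as ATP luminescence (ATPlite 1step), and IC50 values came from variable-slope non-linear regression.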

[2] = target: T1, human BRD4 bromodomain II (Homo sapiens, UniProt O60885); assay: Bromodomain binding assay (AlphaScreen), BRD4 BDII; settings: AlphaScreen assay, Table C2; read-out: BRD4 BDII IC50
T1 construct: human BRD4 bromodomain II [based on Genbank NM_058243, residues 349-460]; host or cells: E. coli
In short: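 AlphaScreen competition: His6-BRD4 BDI (aa 44-170) or BDII (aa 349-460) vs biotin-H4(1-21) K5/K8/K12/K16Ac peptide; Ni-chelate acceptor/streptavidin donor beads. HEPES pH 7.5, NaCl, CHAPS, BSA, 1% DMSO; RT. 10-pt 3-fold titration, % peptide binding fitted → IC50.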

| SMILES | GI50 [1] [nM] | IC50 [2] [nM] |
| --- | --- | --- |
| Cn1ccn(-c2ccc(-c3cc(F)cc(-c4ccc(C(F)F)c(N5CCN(C(C)(C)C)CC5)c4)c3O)cc2Cl)c1=O [Example 813, 1-(3″-(4-(tert-butyl)piperazin-1-yl)-3-chloro-4″-(difluoromethyl)-5′-fluoro-2′-hydroxy-[1,1′:3′,1″-terphenyl]-4-yl)-3-methyl-1H-imdiazol-2(3H)-one] | 30 to 300 | 0.01 to 1 |
| CC(C)N1CCN(c2cc(-c3cc(F)cc(-c4ccc(-n5ccn(C)c5=O)c(Cl)c4)c3O)ccc2C(F)F)CC1 [Example 814, 1-(3-chloro-4″-(difluoromethyl)-5′-fluoro-2′-hydroxy-3″-(4-isopropylpiperazin-1-yl)-[1,1′:3′,1″-terphenyl]-4-yl)-3-methyl-1H-imidazol-2(3H)-one] | 0.3 to 30 | 0.01 to 1 |
| Cn1ccn(-c2ccc(-c3cc(F)cc(-c4ccnc(N5CC6(CC6)[C@](C)(O)C5)c4)c3O)cc2Cl)c1=O [Example 815] | 0.3 to 30 | 0.01 to 1 |
| Cn1ccn(-c2ccc(-c3cc(F)cc(-c4ccnc(N5CC6(CC6)[C@@](C)(O)C5)c4)c3O)cc2Cl)c1=O [Example 816] | 0.3 to 30 | 0.01 to 1 |
| CSc1ncc(-c2cc(F)cc(-c3ccc(-n4ccn(C)c4=O)c(Cl)c3)c2O)cc1N1CCN(C(C)C)CC1 [Example 817, 1-(3-chloro-5′-fluoro-2′-hydroxy-3′-(5-(4-isopropylpiperazin-1-yl)-6-(methylthio)pyridin-3-yl)-[1,1′-biphenyl]-4-yl)-3-methyl-1H-imidazol-2(3H)-one] | 0.3 to 30 | 1 to 10 |
| CSc1cc(-c2cc(F)cc(-c3cnc(SC)c(N4CCN(C(C)C)CC4)c3)c2O)ccc1-n1ccn(C)c1=O [Example 818, 1-(5′-fluoro-2′-hydroxy-3′-(5-(4-isopropylpiperazin-1-yl)-6-(methylthio)pyridin-3-yl)-3-(methylthio)-[1,1′-biphenyl]-4-yl)-3-methyl-1H-imidazol-2(3H)-one] | 30 to 300 | > 100 |
| CC[C@]1(O)CCN(c2cc(-c3cc(F)cc(-c4ccc(-n5ccn(C)c5=O)c(Cl)c4)c3O)ccn2)C1 [Example 819, (S)-1-(3-chloro-3′-(2-(3-ethyl-3-hydroxypyrrolidin-1-yl)pyridin-4-yl)-5′-fluoro-2′-hydroxy-[1,1′-biphenyl]-4-yl)-3-methyl-1H-imidazol-2(3H)-one] | 30 to 300 | 1 to 10 |
| CC[C@@]1(O)CCN(c2cc(-c3cc(F)cc(-c4ccc(-n5ccn(C)c5=O)c(Cl)c4)c3O)ccn2)C1 [Example 820, (R)-1-(3-chloro-3′-(2-(3-ethyl-3-hydroxypyrrolidin-1-yl)pyridin-4-yl)-5′-fluoro-2′-hydroxy-[1,1′-biphenyl]-4-yl)-3-methyl-1H-imidazol-2(3H)-one] | 0.3 to 30 | 1 to 10 |
| CSc1ncc(-c2cc(F)cc(-c3ccc(-n4ccn(C)c4=O)c(Cl)c3)c2O)cc1N1CCN(C(C)(C)C)CC1 [Example 821, 1-(3′-(5-(4-(tert-butyl)piperazin-1-yl)-6-(methylthio)pyridin-3-yl)-3-chloro-5′-fluoro-2′-hydroxy-[1,1′-biphenyl]-4-yl)-3-methyl-1H-imidazol-2(3H)-one] | 0.3 to 30 | 1 to 10 |
| Cn1ccn(-c2ccc(-c3cc(F)cc(-c4ccnc(N5CCC(C)(N6CCCC6)C5)c4)c3O)cc2Cl)c1=O (stereo not drawn) [Example 822, 1-(3-chloro-5′-fluoro-2′-hydroxy-3′-(2-(3′-methyl-[1,3′-bipyrrolidin]-1′-yl)pyridin-4-yl)-[1,1′-biphenyl]-4-yl)-3-methyl-1H-imidazol-2(3H)-one] | 0.3 to 30 | 1 to 10 |
| Cn1ccn(-c2ccc(-c3cc(F)cc(-c4cnc(OC(F)F)c(N5CCN(C(C)(C)C)CC5)c4)c3O)cc2Cl)c1=O [Example 823, 1-(3′-(5-(4-(tert-butyl)piperazin-1-yl)-6-(difluoromethoxy)pyridin-3-yl)-3-chloro-5′-fluoro-2′-hydroxy-[1,1′-biphenyl]-4-yl)-3-methyl-1H-imidazol-2(3H)-one] | 0.3 to 30 | 1 to 10 |
| CC(C)N1CCN(c2cc(-c3cc(F)cc(-c4ccc(-n5ccn(C)c5=O)c(Cl)c4)c3O)cnc2OC(F)F)CC1 [Example 824, 1-(3-chloro-3′-(6-(difluoromethoxy)-5-(4-isopropylpiperazin-1-yl)pyridin-3-yl)-5′-fluoro-2′-hydroxy-[1,1′-biphenyl]-4-yl)-3-methyl-1H-imidazol-2(3H)-one] | 0.3 to 30 | 1 to 10 |
| Cc1ncc(-c2cc(F)cc(-c3ccc(-n4ccn(C)c4=O)c(Cl)c3)c2O)cc1N1CC[C@@](C)(O)C1 [Example 825, (R)-1-(3-chloro-5′-fluoro-2′-hydroxy-3′-(5-(3-hydroxy-3-methylpyrrolidin-1-yl)-6-methylpyridin-3-yl)-[1,1′-biphenyl]-4-yl)-3-methyl-1H-imidazol-2(3H)-one] | 0.3 to 30 | 0.01 to 1 |
| Cn1ccn(-c2ccc(-c3cc(F)cc(-c4cnc(C(F)F)c(N5CCN(C(C)(C)C)CC5)c4)c3O)cc2Cl)c1=O [Example 826, 1-(3′-(5-(4-(tert-butyl)piperazin-1-yl)-6-(difluoromethyl)pyridin-3-yl)-3-chloro-5′-fluoro-2′-hydroxy-[1,1′-biphenyl]-4-yl)-3-methyl-1H-imidazol-2(3H)-one] | 0.3 to 30 | 0.01 to 1 |
| Cn1ccn(-c2ccc(-c3cc(F)cc(-c4cc(Cl)cc(N5CCN(C(C)(C)C)CC5)c4)c3O)cc2Cl)c1=O [Example 827, 1-(3″-(4-(tert-butyl)piperazin-1-yl)-3,5″-dichloro-5′-fluoro-2′-hydroxy-[1,1′:3′,1″-terphenyl]-4-yl)-3-methyl-1H-imidazol-2(3H)-one] | 0.3 to 30 | 0.01 to 1 |
| Cc1cc(-c2cc(F)cc(-c3ccc(-n4ccn(C)c4=O)c(Cl)c3)c2O)cc(N2CCN(C(C)(C)C)CC2)c1 [Example 828, 1-(3″-(4-(tert-butyl)piperazin-1-yl)-3-chloro-5′-fluoro-2′-hydroxy-5″-methyl-[1,1′:3′,1″-terphenyl]-4-yl)-3-methyl-1H-imidazol-2(3H)-one] | 0.3 to 30 | 0.01 to 1 |
| Cc1ncc(-c2cc(F)cc(-c3ccc(-n4ccn(C)c4=O)c(Cl)c3)c2O)cc1N1CC(C)(O)C2(CC2)C1 (stereo not drawn) [Example 829, 1-(3-chloro-5′-fluoro-2′-hydroxy-3′-(5-(7-hydroxy-7-methyl-5-azaspiro[2.4]heptan-5-yl)-6-methylpyridin-3-yl)-[1,1′-biphenyl]-4-yl)-3-methyl-1H-imidazol-2(3H)-one] | 0.3 to 30 | 0.01 to 1 |
| COCC(C)(C)N1CCN(c2cccc(-c3cc(F)cc(-c4ccc(-n5ccn(C)c5=O)c(Cl)c4)c3O)c2)CC1 [Example 830, 1-(3-chloro-5′-fluoro-2′-hydroxy-3″-(4-(1-methoxy-2-methylpropan-2-yl)piperazin-1-yl)-[1,1′:3′,1″-terphenyl]-4-yl)-3-methyl-1H-imidazol-2(3H)-one] | 0.3 to 30 | 1 to 10 |
| CC(C)N1CCN(c2cc(-c3cc(F)cc(-c4ccc(-n5ccn(C)c5=O)c(Cl)c4)c3O)cnc2C(F)F)CC1 [Example 831, 1-(3-chloro-3′-(6-(difluoromethyl)-5-(4-isopropylpiperazin-1-yl)pyridin-3-yl)-5′-fluoro-2′-hydroxy-[1,1′-biphenyl]-4-yl)-3-methyl-1H-imidazol-2(3H)-one] | 0.3 to 30 | 1 to 10 |
| Cn1ccn(-c2ccc(-c3cc(F)cc(-c4cnnc(N5CC[C@@](C)(O)C5)c4)c3O)cc2Cl)c1=O [Example 832, (R)-1-(3-chloro-5′-fluoro-2′-hydroxy-3′-(6-(3-hydroxy-3-methylpyrrolidin-1-yl)pyridazin-4-yl)-[1,1′-biphenyl]-4-yl)-3-methyl-1H-imidazol-2(3H)-one] | 0.3 to 30 | 0.01 to 1 |
| COc1ncc(-c2cc(F)cc(-c3ccc(-n4ccn(C)c4=O)c(Cl)c3)c2O)cc1N1CC(C)(O)C2(CC2)C1 (stereo not drawn) [Example 833, 1-(3-chloro-5′-fluoro-2′-hydroxy-3′-(5-(7-hydroxy-7-methyl-5-azaspiro[2.4]heptan-5-yl)-6-methoxypyridin-3-yl)-[1,1′-biphenyl]-4-yl)-3-methyl-1H-imidazol-2(3H)-one] | 30 to 300 | 1 to 10 |
| COc1ncc(-c2cc(F)cc(-c3ccc(-n4ccn(C)c4=O)c(Cl)c3)c2O)cc1N1CC(C)(O)C1 [Example 834, 1-(3-chloro-5′-fluoro-2′-hydroxy-3′-(5-(3-hydroxy-3-methylazetidin-1-yl)-6-methoxypyridin-3-yl)-[1,1′-biphenyl]-4-yl)-3-methyl-1H-imidazol-2(3H)-one] | 0.3 to 30 | 1 to 10 |
| Cc1ncc(-c2cc(F)cc(-c3ccc(-n4ccn(C)c4=O)c(Cl)c3)c2O)cc1N1CC2CCC(C1)N2C(C)C [Example 835, 1-(3-chloro-5′-fluoro-2′-hydroxy-3′-(5-(8-isopropyl-3,8-diazabicyclo[3.2.1]octan-3-yl)-6-methylpyridin-3-yl)-[1,1′-biphenyl]-4-yl)-3-methyl-1H-imidazol-2(3H)-one] | 0.3 to 30 | 1 to 10 |
| COc1ncc(-c2cc(F)cc(-c3ccc(-n4ccn(C)c4=O)c(Cl)c3)c2O)cc1N1CC2CCC(C1)N2C(C)C [Example 836, 1-(3-chloro-5′-fluoro-2′-hydroxy-3′-(5-(8-isopropyl-3,8-diazabicyclo[3.2.1]octan-3-yl)-6-methoxypyridin-3-yl)-[1,1′-biphenyl]-4-yl)-3-methyl-1H-imidazol-2(3H)-one] | 0.3 to 30 | 1 to 10 |
